Entries after “also recorded” stand apart in the source; their conditions may differ.
Columns and labels:
Type in all cases: cell-based
Pseudomonas aeruginosa [1] = test: Microbiological evaluation of overnight bacteria suspensions, modified alginate wound dressing with absorbed substrate on agar; conditions: PSA overnight culture, 24 h incubation at 37° C.
Method: (§1) ACTIVHEAL® simply A (10×20 cm) non-adhesive foam samples were provided by Advanced Medical Solutions Ltd. The wound dressings were cut into ~5-10×5-10 mm squares, using an ethanol washed pair of scissors. A maximum of 0.20 g of the material was added into 10 mL DI water, and the pH was adjusted to ~3 by the addition of 0.1 M aq. HCl solution. The solution was stirred for 10 mins at room temperature, followed by the addition of 0.33 g EDC •HCl (1.7 mmol) and the pH was maintained at ~3 by the addition of 0.1 M aq. HCl solution. The solution was stirred at room temperature for 10 mins followed by the addition of 0.88 g compound 8 which was dissolved in DMSO or DMF. The mixture was stirred at room temperature for 48 h. The wound dressings were filtered and were washed with ethanol. To ensure the full removal of any non-coupled amide (8), the foam samples were resuspended in ethanol, stirred for 10 mins and filtered, and this process was repeated until the amide (8) was not detectable from the filtrate (this could be maintained by TLC or HPLC evaluation). The samples were dried in a vacuum oven for 3-4 h.
(§2) The aqueous solution of 3a or 3b was prepared by the following: the desired amount of the enzymatic substrate (3.0 mg for 300 mg/L, 6.0 mg for 600 mg/L, 9.0 mg for 900 mg/L, 15.0 mg for 1500 mg/L, and 30.0 mg for 3000 mg/L) was weighed out on a 4 decimal place balance within ±0.3 mg error limit into a 10 mL volumetric flask and was adjusted to 10.0 mL with DI water. The solutions were absorbed into the foam samples and dried in a vacuum oven at 40° C. overnight.
To model fluid exudate from a chronic wound, the wound dressing made according to ‘Modification of ActivHeal® Alginate’, above, was placed into an agar plate and the test pathogen was smeared over the surface of the agar.
The enzymatic substrates were tested in 4 different concentrations (300, 600, 900 and 3000 mg/L) using DI water as a solvent, and the solutions were absorbed into the wound dressing samples, which were dried overnight under vacuum at 40° C.
Two Gram negative strains (Escherichia coli—EC and Pseudomonas aeruginosa—PSA) and a Gram positive bacteria (Staphylococcus aureus—SA) were evaluated against the dimethyl (3a) and the diethyl (3b) substituted substrate. The overnight cultures were directly smeared from LB broth onto Columbia blood agar without measuring the OD. The wound dressings with the enzymatic substrate absorbed were placed onto the agar and were incubated overnight (see FIGS. 2-7).

Staphylococcus aureus = test: Microbiological evaluation of standardised bacterial suspensions, modified wound dressing with absorbed substrate on agar; set-up: key to Observable colour change: − indicates no colour change; +− indicates relatively discernible blue colour change; + indicates a moderately strong blue colour change; ++ indicates a strong blue colour change; conditions: for colour change: SA
Method: as §1, §2
(§3) Bacterial strains were routinely cultured from working stocks in Tryptic Soy Broth (TSB) and incubated at 37° C. overnight with shaking at 150 RPM. Overnight cultures were centrifuged at 3000×g for 5 minutes, the supernatant discarded, and the pellet resuspended in 10 mL phosphate buffered saline (PBS). Bacterial inoculums were standardised by optical density at 600 nm on an Amersham Biosciences Ultrospec 10 spectrophotometer (Amersham Biosciences, Amersham, UK) to contain between 1 and 3×10^8 CFU/mL.
(§4) However, rapid evaluation of lower bacteria concentrations is essential for the desired clinical application. […] The solutions were absorbed into the wound dressing samples, which were dried overnight under vacuum at 40° C.
(§5) Two Gram negative strains (Escherichia coli—EC and Pseudomonas aeruginosa—PSA) and a Gram-positive bacterium (Staphylococcus aureus—SA) were evaluated. The bacteria were incubated overnight, centrifuged at 3000×g for 5 mins, the supernatant was discarded, and the residue pellets were resuspended in 10 mL PBS. The inoculums were standardised by measuring the optical density at 600 nm to assure a 1-3×10^8 CFU/mL. The standardised solutions were further diluted to prepare 1-3×10^6 and 1-3×10^4 CFU/mL suspension. 1×10^6 CFU would be an ideal breakpoint for a positive result, as this concentration coincides well with a level of colonisation that would likely go on to produce an infection.
(§6) 100 μL bacterial suspensions were smeared over agar plates. Wound dressing samples were added to the top of the agar and were rolled over a few times (to ensure a full coverage and to ease the visibility of the colour change). The plates were incubated at 37° C., and the results were recorded after 24 h, after 48 h, after 72 h. The results are shown in Table 3-5; − indicates no colour change, +− indicates relatively discernible blue colour change, + indicates a moderately strong blue colour change and ++ indicates a strong blue colour change.

Pseudomonas aeruginosa [2] = test: as above; set-up: key to Observable colour change: − indicates no colour change; +− indicates relatively discernible blue colour change; + indicates a moderately strong blue colour change; ++ indicates a strong blue colour change
Method: as §1, §2, §3, §4, §5, §6

CCN(CC)c1ccc(NC(=O)[C@@H](N)CC(C)C)cc1.Cl [3b, (2S)-2-amino-N-[4-(diethylamino)phenyl]-4-methyl-pentanamide hydrochloride]
Observable colour change (Pseudomonas aeruginosa [1]; substrate 300 mg/L, hydrochloride): blue colour changes; also recorded: Light blue
Observable colour change (Pseudomonas aeruginosa [1]; substrate 600 mg/L): Light blue
Observable colour change (Pseudomonas aeruginosa [1]; substrate 900 mg/L): Blue
Observable colour change (Pseudomonas aeruginosa [1]; substrate 3000 mg/L): Dark blue
Observable colour change (Staphylococcus aureus; SA 10^4, substrate 300 mg/L, 24 h at 37° C.): −
Observable colour change (Staphylococcus aureus; SA 10^4, substrate 300 mg/L, 48 h at 37° C.): −
Observable colour change (Staphylococcus aureus; SA 10^4, substrate 300 mg/L, 72 h at 37° C.): −
Observable colour change (Staphylococcus aureus; SA 10^4, substrate 900 mg/L, 24 h at 37° C.): −
Observable colour change (Staphylococcus aureus; SA 10^4, substrate 900 mg/L, 48 h at 37° C.): −
Observable colour change (Staphylococcus aureus; SA 10^4, substrate 900 mg/L, 72 h at 37° C.): −
Observable colour change (Staphylococcus aureus; SA 10^4, substrate 1500 mg/L, 24 h at 37° C.): −
Observable colour change (Staphylococcus aureus; SA 10^4, substrate 1500 mg/L, 48 h at 37° C.): −
Observable colour change (Staphylococcus aureus; SA 10^4, substrate 1500 mg/L, 72 h at 37° C.): −
Observable colour change (Staphylococcus aureus; SA 10^6, substrate 300 mg/L, 24 h at 37° C.): −
Observable colour change (Staphylococcus aureus; SA 10^6, substrate 300 mg/L, 48 h at 37° C.): −
Observable colour change (Staphylococcus aureus; SA 10^6, substrate 300 mg/L, 72 h at 37° C.): −
Observable colour change (Staphylococcus aureus; SA 10^6, substrate 900 mg/L, 24 h at 37° C.): −
Observable colour change (Staphylococcus aureus; SA 10^6, substrate 900 mg/L, 48 h at 37° C.): −
Observable colour change (Staphylococcus aureus; SA 10^6, substrate 900 mg/L, 72 h at 37° C.): −
Observable colour change (Staphylococcus aureus; SA 10^6, substrate 1500 mg/L, 24 h at 37° C.): −
Observable colour change (Staphylococcus aureus; SA 10^6, substrate 1500 mg/L, 48 h at 37° C.): −
Observable colour change (Staphylococcus aureus; SA 10^6, substrate 1500 mg/L, 72 h at 37° C.): +−
Observable colour change (Staphylococcus aureus; SA 10^8, substrate 300 mg/L, 24 h at 37° C.): −
Observable colour change (Staphylococcus aureus; SA 10^8, substrate 300 mg/L, 48 h at 37° C.): −
Observable colour change (Staphylococcus aureus; SA 10^8, substrate 300 mg/L, 72 h at 37° C.): −
Observable colour change (Staphylococcus aureus; SA 10^8, substrate 900 mg/L, 24 h at 37° C.): −
Observable colour change (Staphylococcus aureus; SA 10^8, substrate 900 mg/L, 48 h at 37° C.): −
Observable colour change (Staphylococcus aureus; SA 10^8, substrate 900 mg/L, 72 h at 37° C.): −
Observable colour change (Staphylococcus aureus; SA 10^8, substrate 1500 mg/L, 24 h at 37° C.): −
Observable colour change (Staphylococcus aureus; SA 10^8, substrate 1500 mg/L, 48 h at 37° C.): +−
Observable colour change (Staphylococcus aureus; SA 10^8, substrate 1500 mg/L, 72 h at 37° C.): +−
colour change (Staphylococcus aureus; 48 h paragraph, substrate 1500 mg/L): weak, but discernible colour change
colour change (Staphylococcus aureus; after 72 h, substrate 1500 mg/L): weak, hardly visible colour change
Observable colour change (Pseudomonas aeruginosa [2]; PSA 10^4, substrate 300 mg/L, 24 h at 37° C.): −
Observable colour change (Pseudomonas aeruginosa [2]; PSA 10^4, substrate 300 mg/L, 48 h at 37° C.): −
Observable colour change (Pseudomonas aeruginosa [2]; PSA 10^4, substrate 300 mg/L, 72 h at 37° C.): +
Observable colour change (Pseudomonas aeruginosa [2]; PSA 10^4, substrate 900 mg/L, 24 h at 37° C.): −
Observable colour change (Pseudomonas aeruginosa [2]; PSA 10^4, substrate 900 mg/L, 48 h at 37° C.): −
Observable colour change (Pseudomonas aeruginosa [2]; PSA 10^4, substrate 900 mg/L, 72 h at 37° C.): ++
Observable colour change (Pseudomonas aeruginosa [2]; PSA 10^4, substrate 1500 mg/L, 24 h at 37° C.): −
Observable colour change (Pseudomonas aeruginosa [2]; PSA 10^4, substrate 1500 mg/L, 48 h at 37° C.): −
Observable colour change (Pseudomonas aeruginosa [2]; PSA 10^4, substrate 1500 mg/L, 72 h at 37° C.): ++
Observable colour change (Pseudomonas aeruginosa [2]; PSA 10^6, substrate 300 mg/L, 24 h at 37° C.): −
Observable colour change (Pseudomonas aeruginosa [2]; PSA 10^6, substrate 300 mg/L, 48 h at 37° C.): −
Observable colour change (Pseudomonas aeruginosa [2]; PSA 10^6, substrate 300 mg/L, 72 h at 37° C.): +
Observable colour change (Pseudomonas aeruginosa [2]; PSA 10^6, substrate 900 mg/L, 24 h at 37° C.): −
Observable colour change (Pseudomonas aeruginosa [2]; PSA 10^6, substrate 900 mg/L, 48 h at 37° C.): +−
Observable colour change (Pseudomonas aeruginosa [2]; PSA 10^6, substrate 900 mg/L, 72 h at 37° C.): ++
Observable colour change (Pseudomonas aeruginosa [2]; PSA 10^6, substrate 1500 mg/L, 24 h at 37° C.): −
Observable colour change (Pseudomonas aeruginosa [2]; PSA 10^6, substrate 1500 mg/L, 48 h at 37° C.): −
Observable colour change (Pseudomonas aeruginosa [2]; PSA 10^6, substrate 1500 mg/L, 72 h at 37° C.): +
colour change (Pseudomonas aeruginosa [2]; PSA 10^8, 10^6 or 10^4 CFU, after 72 h, every tested substrate concentration): moderate or strong blue colour changes
Observable colour change (Pseudomonas aeruginosa [2]; PSA 10^8, substrate 300 mg/L, 24 h at 37° C.): −
Observable colour change (Pseudomonas aeruginosa [2]; PSA 10^8, substrate 300 mg/L, 48 h at 37° C.): +
Observable colour change (Pseudomonas aeruginosa [2]; PSA 10^8, substrate 300 mg/L, 72 h at 37° C.): +
Observable colour change (Pseudomonas aeruginosa [2]; PSA 10^8, substrate 900 mg/L, 24 h at 37° C.): −
Observable colour change (Pseudomonas aeruginosa [2]; PSA 10^8, substrate 900 mg/L, 48 h at 37° C.): ++
Observable colour change (Pseudomonas aeruginosa [2]; PSA 10^8, substrate 900 mg/L, 72 h at 37° C.): ++
Observable colour change (Pseudomonas aeruginosa [2]; PSA 10^8, substrate 1500 mg/L, 24 h at 37° C.): −
Observable colour change (Pseudomonas aeruginosa [2]; PSA 10^8, substrate 1500 mg/L, 48 h at 37° C.): ++
Observable colour change (Pseudomonas aeruginosa [2]; PSA 10^8, substrate 1500 mg/L, 72 h at 37° C.): ++
colour change (Pseudomonas aeruginosa [2]; PSA 10^8 CFU, 10^6 CFU, and 104 CFU, substrate 900 mg/L, printed in the 48 h paragraph): strong blue colour changes
colour change (Pseudomonas aeruginosa [2]; PSA 10^8 CFU, after 48 h incubation, substrate 900 or 1500 mg/L): strong blue colour changes
